How the values were obtained:
Assay type in all cases: cell-based
[1] = target: T1, STING (Homo sapiens, UniProt Q86WV6, G230A/H232R/R293Q/R71H); test: IFNβ release from THP1 by STING activation (hIFNβ ELISA); details: THP1 cells, 24 h, IFN-β in supernatant; inactive = IFNβ not detected at the maximum concentration of compounds
T1 construct: THP1 was purchased from National Collection of Authenticated Cell Cultures (Cat #TCHu 57); host or cells: THP1
Procedure, shortened: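 THP1 cells from log-phase culture, suspended at 2×10^6 cells/ml, were treated with an 8-point, 3-fold compound series (0.2% DMSO final) for 24 h at 37°C, 5% CO2. Secreted IFN-β in supernatant was quantified by human IFNβ ELISA, and EC50 was obtained by curve fitting.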

[2] = target: T2, STING variants (WT) (Homo sapiens, UniProt Q86WV6); test: SEAP reporter assay in HEK-Blue ISG KO-STING cells transfected with STING WT variant (Method 2, 1 ng vector); details: compound concentration 2.5 (mM as printed); 24 h; SEAP signal ratio to 0.5% DMSO
T2 construct: host or cells: HEK-Blue ISG KO-STING cells (Invivogen, hkb-kostg)
Description: (§1) Example II: STING Variants (WT & HAQ) Activation by Compounds in HEK-Blue™ ISG KO-STING Cells (Method 2)
(§2) Activation of STING can be determined using a SEAP reporter assay in HEK-Blue™ ISG KO-STING cells (Invivogen, cat #hkb-kostg) transfected with plasmids expressing STING variants (WT & HAQ) (referred to WO2017/175147A1). STING variants (WT & HAQ) vector were constructed based on STING-232H vector (Origene, RC208418). GFP vector (VT2069) was bought from Youbio. The detailed protocol as follows: HEK-Blue™ ISG KO-STING cells were harvest and seeding into 96 well plate and the final cell number was 0.8×10^5 cells/well. Transfections were prepared using Lipofectamine 2000 (Invitrogen, Cat #11668-027) following the manufacturer's instructions (Lipo2000:DNA=1:10), 20 ul of transfection suspension containing 1 ng (WT variant) or 0.0625 ng (HAQ variant) STING vector was added to cell culture plate and incubated at 37° C., 5% CO2 for 24 h. After 24 hours incubation, compounds were added at proper concentration, the final DMSO concentration was 0.5%. After 24h incubation, the supernatant was collected to detect SEAP signal using Great EscAPe SEAP chemiluminescence KIT (Clontech, cat #631738) and cells were collected to detect cell viability using CellTiter-Glo Luminescent Cell Viability Assay(Promega, cat #G7573) following the manufacturer's instructions. The data were described by the ratio of the stimulating signal of compounds to 0.5% DMSO.

[3] = target: T3, STING variants (HAQ) (Homo sapiens, UniProt Q86WV6, G230A/R293Q/R71H); test: SEAP reporter assay in HEK-Blue ISG KO-STING cells transfected with STING HAQ variant (Method 2, 0.0625 ng vector); details: compound concentration 5 (mM as printed); 24 h; SEAP signal ratio to 0.5% DMSO
T3 construct: host or cells: HEK-Blue ISG KO-STING cells (Invivogen, hkb-kostg)
Description: as §1, §2

T3 sequence (Q86WV6 whole entry R71H/G230A/R293Q): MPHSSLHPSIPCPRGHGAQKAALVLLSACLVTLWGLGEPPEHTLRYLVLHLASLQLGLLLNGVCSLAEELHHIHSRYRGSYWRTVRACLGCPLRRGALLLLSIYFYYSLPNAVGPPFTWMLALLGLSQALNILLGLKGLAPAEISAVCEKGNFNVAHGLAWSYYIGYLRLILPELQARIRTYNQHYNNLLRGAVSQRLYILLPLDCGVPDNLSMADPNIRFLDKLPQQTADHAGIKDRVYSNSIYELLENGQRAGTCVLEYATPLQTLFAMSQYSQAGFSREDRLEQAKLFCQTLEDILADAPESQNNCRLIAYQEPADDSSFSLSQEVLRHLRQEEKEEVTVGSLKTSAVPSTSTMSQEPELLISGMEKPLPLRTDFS
T1 sequence (Q86WV6 whole entry R71H/G230A/H232R/R293Q): as the sequence (Q86WV6 whole entry R71H/G230A/R293Q) above, with H232R counted along it

CCn1nc(C)c(F)c1C(=O)Nc1nc2cc(C(N)=O)cc3c2n1CC1(COC1)CO3 [Example 72, 1-(1-Ethyl-4-fluoro-3-methyl-1H-pyrazole-5-carboxamido)-7H,9H-6-oxa-2,9a-diazaspiro[benzo[cd]azulene-8,3′-oxetan]-1,2a,2a^1(5a),4-tetraene-4-carboxamide] was tested, and the EC50 [1] was > 38.5 µM, the “Fold change related to DMSO control, WT” value [2] was 1.24 fold and the “Fold change related to DMSO control, HAQ” value [3] was 3.27 fold.
